These results are taken from patent US20240181089A1, “PHARMACEUTICAL POLYMER CONJUGATES” (priority 2021, published 2024).

Experiment [1] relates to folate receptor (FR) isoforms FR-α and FR-β. The conditions noted are these: Vaitilingam et al.; cited from earlier work.
Experiment [2] deals with 4T1 cells. Put plainly: Confocal microscopy mode-of-action test (cell detachment, anti-AIF, TUNEL, Hoechst) with or without PJ34. It is filed as cell-based, murine. The note with it: 1.5 h treatment. The text has this:
In addition to the cytotoxicity featuring the simultaneous uptake of PI and A5, Fatokun et al. previously defined PARP-dependent nuclear translocation of AIF and subsequent generation of massive DNA breaks as the hallmark features of parthanatos (Parthanatos: mitochondrial-linked mechanisms and therapeutic opportunities. British journal of pharmacology 171, 2000-2016 (2014)). To investigate whether the observed PI+A5 + necrotic 4T1 cell deaths by the zinc compounds (FIG. 5B and 5C) accompanied these features, we performed confocal microscopy studies after 1.5 h treatment for assessing the occurrence of PARP-dependent cytotoxicity, nuclear AIF translocation, and DNA breaks using fluorescent probes of anti-AIF, TUNEL, and Hoechst 33342 (Hoechst) DNA stain upon co-incubation with a potent PARP1 and PARP2 inhibitor PJ34. Assessment of PAR-polymer content, however, could not be incorporated into this experiment due to unavailability of sufficiently sensitive fluorescent probe for PAR-polymer during this study. Also, any longer treatment time could not be applied to this experiment due to extensive cytotoxic changes observed in the C010DS-Zn treated groups.

The subject of experiment [3] is 4T1 murine triple negative breast cancer cell line. The class given is cell-based. The conditions noted are these: 24 h treatment, LDH release, 4T1 cells, expressed in zinc concentration. For orientation: Release of lactate dehydrogenase indicates damage to the cell membrane.
Method: 24 h in vitro cytotoxicity was tested for each compound against 4T1 murine triple negative breast cancer cell line in obtaining their IC5024h values using lactate dehydrogenase release assay (LDH assay), which were expressed in zinc concentration (μM Zn) units for comparative viewing.
Experiment [4] deals with 4T1 cells. Put plainly: Apoptosis-necrosis flow cytometry with annexinV (A5) and propidium iodide (PI). The class given is cell-based, murine.
For another experiment, the system named is cancer cell lines. The note with it: NPL6; cited from earlier work.
[5] abbreviates: concentration-resolved study after 3 h treatment.

Some results are limits rather than exact numbers.

Turning to `CN(CC1CNc2nc(N)[nH]c(=O)c2N1C)c1ccc(C(=O)N[C@@H](CCC(=O)O)C(=O)O)cc1` (some centres unmarked) [DMTHF, N^5, N^10-dimethyl tetrahydrofolate], in experiment [1], the “folate receptor isoform preference” value is on record as “higher affinity for FR-α over FR-β”.
Consider `O=S(=O)([O-])[O-].[Zn+2]` [zinc sulfate], for which, in the experiment on 4T1 cells [2], the “nuclear AIF translocation and DNA damages (TUNEL)” value is reported as “failed to elicit significantly higher nuclear AIF translocation nor the DNA damages”. Further, the cell detachment result in the experiment on 4T1 cells [2] (all concentrations tested) is given as “did not cause marked cell detachment”. For the same compound, in experiment [3], the IC50 came to 80.7 µM. In the experiment on 4T1 cells [4] (setting [5]), the “A5+ only apoptotic cell deaths” value is “without notable increases”, the “proportion of PI+ only necrosis” value came out at 18% and the “proportion of PI+A5+ necrosis” value worked out at 4%. The “PI+ only or PI+A5+ necrotic cell death” value in the experiment with 4T1 cells [4] (concentration-resolved study after 3 h treatment, maximum) is reported as no more than 26%. The “time after treatment at which mainly PI+A5+ and minor PI+ only necrotic cell death was induced” value in the experiment with 4T1 cells [4] (time resolved study, 450 μM Zn) turned out to be 1.5 h.
Consider zinc pyrithione [ZnPyr2], for which, in the experiment with cancer cell lines, the PARP cleavage result was “complete PARP cleavage” and the “mode of cell death” value was “induced apoptosis in cancer cell lines”.

As a reminder, the IC50 is the concentration that inhibits the measured activity by half. Read a low IC50 as greater potency in that assay.
